Results taken from patent publication US7026469B2, “Compositions and methods of double-targeting virus infections and cancer cells” (Wake Forest University School of Medicine, priority 2000, dated 2006).
Where two headings read alike, the source gives them in different places.

What was measured:
CEM-SS cells = assay: Cytotoxicity (TC50) of the compounds tested for anti-HIV-1 activity; assay type: cell-based, human
Protocol: (§1) The inhibitory effects of PC lipids, non-PC lipid-AZT conjugates, and double-targeting PC lipid-AZT conjugate compounds of the invention on replication of HIV-1 virus in cells was examined using the plaque assay procedure described in Kucera et al. (1990, AIDS Research and Human Retroviruses, 6:491). CEM-SS cells were seeded at 50,000 cells per milliliter in RPMI growth medium as a monolayer in 96-well dishes, inoculated with 50 to 100 plaque forming units of HIV-1 and overlaid with serial dilutions of either PC lipid, non-PC lipid-AZT conjugate, or PC-lipid-AZT conjugate in RPMI-1640 growth medium supplemented with 10% fetal bovine serum. The structures of the tested compounds are described in Table 1. AZT and PC lipids were used as positive controls. […] The cytotoxicity of PC lipids, non-PC lipid-AZT conjugates and double targeting PC lipid-AZT conjugates was assessed using the procedure described in Kucera et al. (1990, AIDS Res. And Human Retrovir., 6:496, and 1998, Antiviral Chemistry and Chemotherapy, 9:160). [drawing 16]

human lymphocytes = assay: Metabolism of conjugate in human lymphocytes in tissue culture; assay type: in vitro ADME
Protocol: In another set of experiments the metabolism of the compound BM21-1290 using human lymphocytes in tissue culture was assessed. […] The predominant AZT species was AZT-MP with lesser amounts of AZT-DP, AZT-TP and AZT. […] AZT-MP can be activated to AZT-TP the inhibitor of HIV-1 induced reverse transcriptase.

[1] = Oral administration of phospholipid-AZT conjugate in rodents (distribution, half-life); parameters: species or system rodents (mice); conditions: mouse, in vivo
HIV-1 = HIV-1 syncytial plaque assay in CEM-SS cells; assay type: cell-based
Protocol: as §1
In the plaque assay, HIV-1 syncytial plaques are seen as large, multicellular foci (10 to 25 nuclei/syncytium) that appear either brown and granular or clear. Because the number of HIV-1 syncytial plaques was correlated with reverse transcriptase (RT) and p24 core antigen activity in the HIV-1 infected cell overlay fluids, the syncytial plaque assay could be used to quantify the amount of infectious virus. Reverse transcriptase activity was assayed according to the procedure described by Poeisz et al. (1980, Proc. Natl. Acad. Sci. U.S.A. 77:7415). The activity of p24 core antigen induced by HIV-1 infection of CEM-SS cells was measured spectrophotometrically using the commercial Coulter enzyme immunoassay (EIA).

Friend leukemia virus = conditions: cited from earlier work
[2] = system: HIV-1 persistently infected H9IIIB cells; assay: Induction of defective HIV-1 in persistently infected H9IIIB cells (RT activity after infecting fresh CEM-SS cells); assay type: cell-based; conditions: for DPM-Bkg: RT activity in CEM-SS overlay medium after 7 or 9 days, H9IIIB cells treated with 1.0 μM compound for 14 or 11 days; for % Inhibition: inhibition of RT activity as measure of defective virus formation, 1.0 μM compound, 14 or 11 days
Protocol: HIV-1 persistently infected H9IIIB cells were washed twice to remove extracellular HIV-1, resuspended in fresh growth medium with or without 1.0 μM of compound for a total of 14 days. During the treatment period, the cells were subcultured 1:3 three times a week. In addition, on days 3, 7 and 11, the cells were pelleted to remove extracellular HIV-1 before subculture in fresh growth medium with or without the compound. After 14 or 11 days of treatment, the virus was pelleted (100,000×g, 1 hr, 4 C.) from the overlay medium to remove free compound, resuspended in fresh medium without compound and assayed for RT activity. The virus suspension was normalized to 500,000 RT DPM and used to infect fresh CEM-SS cells. The infected CEM-SS cells were incubated for a total of 7 or 9 days, and the overlay medium was harvested and assayed for induction of RT activity. The % inhibition of RT activity was used as a measure of defective virus formation during the treatment period.

[3] = system: monkey kidney cells (Vero); assay: Cytotoxicity in Vero cell monolayers (cell morphology); assay type: cell-based; conditions: 48 hours at 37° C., lowest concentration changing morphology in at least 25% of the cells; for CC50: read-out: Cytotoxicity (TC50)
Protocol: To measure cytotoxicity of the compounds, the cell monolayers (described above) were treated with a serial concentration of test compound for 48 hours at 37° C. and visually examined after crystal violet staining by light microscopy for changes in cell morphology (cell rounding, shrinking, detachment) compared to an untreated control culture.

[4] = system: herpes simplex virus type 2; assay: Herpes simplex virus type 2 plaque inhibition in Vero cells; assay type: cell-based
Protocol: Proof-of-concept of the antiviral activity of the double-targeting PC lipid-AZT conjugate compounds of the invention with respect to herpes simplex virus type 2 was evaluated and compared with that of PC lipid alone and with acyclovir (positive controls). Serial dilutions of PC lipid, PC lipid-AZT conjugate compound, or acyclovir were evaluated for inhibition of the formation of herpes simplex virus type 2 plaques in Vero cells and EC50 values were calculated from the results obtained. Briefly, the tests for anti-herpes simplex virus (HSV) activity and cytotoxicity of the compounds were performed by seeding 8×10^4 monkey kidney cells (Vero) per ml of D-MEM with 10% fetal bovine serum (FBS) in each well of a 12-well dish. The cultures were incubated at 37° C. to form a complete monolayer. To measure anti-HSV activity and effective concentration50 (EC50) each cell monolayer was infected with HSV diluted in PBS-A containing about 100 plaque forming units (PFU) per 0.1 ml. After virus attachment (1 hr., 37° C.) the infected monolayers were overlaid with E-MEM containing 2% FBS and 0.5% methyl cellulose with or without added serial concentrations of test compound. […] The EC50 values were calculated using a computer generated program.

[5] = system: AZT-resistant clinical isolates of HIV-1; assay: microbe, parasite or virus in culture; assay type: cell-based; conditions: for Fold-Increase (G-762 to G-691): post-AZT G-691 versus pre-AZT G-762; for Fold-Increase (H112-2 to G-910): post-AZT G-910 versus pre-AZT H112-2; for EC50: mean of 2 to 4 independent tests
Protocol: as §1
Evaluation of the clinical isolates to the compounds was performed using the plaque assay procedure described herein in Example 1. The matched pairs of clinical isolates were obtained through the AIDS Research and Reference Reagent Program, NIH, Bethesda, Md.

[6] = plaques counted after five days at 37° C., CEM-SS cells, read-out: Anti-HIV-1 Activity (EC50)
[7] = Vero cells, 2 days at 37° C., replicate values in one cell, read-out: Anti-Herpes Simplex Activity (EC50)
[8] = post-AZT isolate, patient code G-691, read-out: EC50 Post-AZT G-691
[9] = post-AZT isolate, patient code G-910, read-out: EC50 Post-AZT G-910
[10] = pre-AZT isolate, patient code G-762, read-out: EC50 Pre-AZT G-762
[11] = pre-AZT isolate, patient code H112-2, read-out: EC50 Pre-AZT H112-2
[12] = acyclovir in replicate tests, read-out: EC50 against herpes simplex virus type 2

| SMILES | CC50 (CEM-SS cells; read-out: Cytotoxicity (TC50)) | EC50 (HIV-1; [6]) | DPM-Bkg [2] | % Inhibition [2] | Cytotoxicity (TC50) [3] | EC50 [4, 7] | Fold-Increase (G-762 to G-691) [5] | Fold-Increase (H112-2 to G-910) [5] | EC50 [5, 8] | EC50 [5, 9] | EC50 [5, 10] | EC50 [5, 11] | CC50 [3] | also measured |
| --- | --- | --- | --- | --- | --- | --- | --- | --- | --- | --- | --- | --- | --- | --- |
| CCCCCCCCCCCCSCC(COP(=O)(O)OCC1OC(n2cc(C)c(=O)[nH]c2=O)CC1N=[N+]=[N-])OCCCCCCCCCC (stereo not drawn) [BM21-1290] | 38500 nM | 20 nM |  |  |  |  |  |  |  |  |  |  |  | intracellular metabolism (human lymphocytes): metabolized to form an alkyl-lipid plus a phosphorylated species of AZT; free AZT in the plasma [1]: little or no detectable free AZT in the plasma; half-life [1]: 48 h; tissue uptake [1]: preferentially taken up into lymphoid tissues (lymphoma, spleen and thymus); concentration in the brain versus plasma ([1]; po): equivalent to the concentration of BM21-1290 in the plasma; oral bioavailability ([1]; po): orally bioavailable |
| CCCCCCCCCCOC(CNC(=O)CCCCCCCCC)COP(=O)([O-])OCC[N+](C)(C)C (stereo not drawn) [INK-11, 1-decanamido-2-decyloxypropyl-3-phosphocholine] |  |  |  |  |  |  |  |  |  |  |  |  |  | inhibition of FLV-induced pathogenesis (splenomegaly) (Friend leukemia virus; 50 milligrams per kilogram of body weight per day for 21 days, infected mice): 42%; suppression against RT activity (Friend leukemia virus; INK-11 compared with AZT alone): 42% |
| CCCCCCCCCCCCSCC(COP(=O)([O-])OCC[N+](C)(C)C)OCCCCCCCCOCc1ccccc1 (stereo not drawn) [INK-17, 3-dodecylthio-2-(8′-benzyloxyoctyloxy)propyl phosphocholine] |  | 150 ± 130 nM | 2847 DPM | 58% | toxic @ 4 | > 4000 nM | 0 | 5.1 | 180 nM | 200 nM | 260 nM | 40 nM |  | CC50 (CEM-SS cells): 49100 ± 13200 nM |
| CCCCCCCCCCCCSCC(COP(=O)([O-])OCC[N+](C)(C)C)OCCCCCCCCO (stereo not drawn) [INK-18, 3-dodeceylthio-2-(8′-hydroxyoctyloxy)propyl phosphophocholine] | 50000 ± 42000 nM | 1920 ± 1800 nM | 4195 DPM | 38% |  |  | 0 | 1.8 | 600 nM | 1040 nM | > 1060 nM | 560 nM |  |  |
| CCCCCCCCCCCCSCC(COC(=O)CC(=O)OC[C@H]1O[C@@H](n2cc(C)c(=O)[nH]c2=O)C[C@@H]1N=[N+]=[N-])OC (stereo partly drawn) [INK-19] | 6300 ± 1100 nM | 6 ± 1 nM | 2508 DPM | 63% |  | > 20000 nM | 13.5 | >55.6 | 1620 nM | > 1700 nM | 120 nM | 30 nM | > 20000 nM |  |
| CCCCCCCCCCCCSCC(COP(=O)([O-])OCC[N+](C)(C)C)OCCCCCCCCC(=O)OCC(=O)OC[C@H]1O[C@@H](n2cc(C)c(=O)[nH]c2=O)C[C@@H]1N=[N+]=[N-] (stereo partly drawn) [INK-20] | 6900 ± 600 nM |  | 2455 DPM | 64% | toxic @ 20 | > 20000 nM | 18.6 | 22.0 | 740 nM | 440 nM | 40 nM | 20 nM |  | cytotoxicity (CEM-SS cells): 6.9 ± 0.6 µM; anti-HIV-1 activity relative to AZT (HIV-1; compared with AZT): more than ten-fold higher than AZT; EC50 (HIV-1; read-out: anti-HIV-1 activity): 0.9 nM; fold increase in AZT-resistance among HIV-1 clinical isolates ([5]; text summary over both isolate pairs): about 20 fold |
| CCCCCCCCCCCCSCC(COP(=O)([O-])OCC[N+](C)(C)C)OCCCCCCCCCCOCc1ccccc1 (stereo not drawn) [INK-21] | 57300 ± 10800 nM | 1500 ± 230 nM |  |  | toxic @ 20 | > 20000 nM |  |  |  |  |  |  |  |  |
| CCCCCCCCCCCCSCC(COP(=O)([O-])OCC[N+](C)(C)C)OCCCCCCCCCCO (stereo not drawn) [INK-22] | > 90500 nM | 390 ± 310 nM |  |  | toxic @ 20 | > 20000 nM |  |  |  |  |  |  |  |  |
| CCCCCCCCCCCCSCC(COP(=O)([O-])OCC[N+](C)(C)C)OCCCCCCCCCCCCOCc1ccccc1 (stereo not drawn) [INK-23] | > 100000 nM | > 1460 nM |  |  |  | > 20000 nM |  |  |  |  |  |  | > 20000 nM |  |
| CCCCCCCCCCCCSCC(COP(=O)([O-])OCC[N+](C)(C)C)OCCCCCCCCCCCCO (stereo not drawn) [INK-24] | 80600 ± 6200 nM | 390 ± 390 nM | 3087 DPM | 33% |  | 13900 nM | 0 | <1.0 | 80 nM | 250 nM | 190 nM | 370 nM | > 20000 nM | EC50 [4, 12]: 13800 nM |
| CCCCCCCCCCCCSCC(COP(=O)([O-])OCC[N+](C)(C)C)OCCCCCCCCCCOC(=O)CC(=O)OC[C@H]1O[C@@H](n2cc(C)c(=O)[nH]c2=O)C[C@@H]1N=[N+]=[N-] (stereo partly drawn) [INK-25] | 13600 nM | 20 ± 10 nM | 2140 DPM | 54% | toxic @ 20 | > 20000 nM | 2 | 2.5 | 60 nM | 10 nM | 30 nM | 4 nM |  |  |
| CCCCCCCCCCCCSCC(COP(=O)([O-])OCC[N+](C)(C)C)OCCCCCCCCCCCCOC(=O)CC(=O)OC[C@H]1O[C@@H](n2cc(C)c(=O)[nH]c2=O)C[C@@H]1N=[N+]=[N-] (stereo partly drawn) [INK-26] | 11600 nM | 20 ± 20 nM | 1793 DPM | 61% |  |  | 20 | 1.5 | 60 nM | 30 nM | 3 nM | 20 nM | > 20000 nM | EC50 [4, 12]: 12000 nM |
